Reference: US20250206761A1, “HALOINDOLE MACROCYCLIC COMPOUNDS FOR THE TREATMENT OF CANCER” (Hoffmann-La Roche Inc., priority 2022, published 2025)

Columns and labels:
[1] = target: KRAS G12C-BRAF complex (Homo sapiens (Human), UniProt P01116+P62937, G12C); test: KRAS-BRAF with CYPA (500 nM) interaction assay (TR-FRET), G12C; type: biochemical
Protocol: (§1) In this example, TR-FRET was also used to measure the compound or compound-CYPA dependent disruption of the KRAS G12C-BRAF complex. This protocol was also used to measure disruption of KRAS G12D or KRAS G12V binding to BRAF by a compound of the invention, respectively. In assay buffer containing 25 mM HEPES PH=7.4 (4-(2-hydroxyethyl)-1-piperazineethanesulfonic acid, Thermo, 15630080), 0.002% Tween20, 0.1% BSA, 100 mM NaCl, 5 mM MgCl2, 10 μM GMPPNP (Guanosine 5′-[β,γ-imido]triphosphate trisodium salt hydrate, Sigma, G0635), […] 384-well assay plate at final concentrations of 50 nM, 6.25 nM and 1 nM, respectively. Compound was present in plate wells as a 16-point 3-fold dilution series starting at a final concentration of 10 μM and incubated for 3 hours. A mixture of MAb Anti-6His-XL665 (Cisbio, 61HISXLB) and Mab anti-GST-TB cryptate (Cisbio, 61GSTTLB) was then added at a final concentration of 6.67 nM and 0.21 nM, respectively, and the plate was incubated for an additional 1.5 hours. TR-FRET signal was read on a PHERstar FSX microplate reader (Ex320 nm, Em 665/615 nm). Compounds that facilitate disruption of the KRAS-BRAF complex were identified as those eliciting a decrease in the TR-FRET ratio relative to DMSO control wells.

[2] = test system: AGS (ATCC-CRL-1739) cells; test: Cell viability assay, G12D (AGS); type: cell-based, human; conditions: Homo sapiens, KRAS cell viability, 72 hrs, Cell Counting Kit-8
Protocol: (§2) The purpose of this cellular assay was to determine the effects of test compounds on the proliferation of human cancer cell lines NCI-H358 (ATCC-CRL5807) cells, AGS (ATCC-CRL-1739) cells, SW620 (ATCC-CCL-227) over a 3-day treatment period by quantifying the amount of NADPH present at endpoint using Cell Counting Kit-8.
(§3) Cells were seeded at 5,000 cells/well (NCI-H358), 2,000 cells/well (AGS) 2,000 cells/well (SW620) in 96-well assay plates (Corning-3699) and incubated overnight. On the day of the assay, diluted compounds were then added in a final concentration of 0.5% DMSO. After 72 hrs incubation, a tenth of the volume of cell counting kit 8 (Dnjindo-CK04) was added into each well. Read the signal (OD450 minus OD650) using EnVision after 2 hrs incubation. IC50 was determined by fitting a 4-parameter sigmoidal concentration response model.

[3] = test system: NCI-H358 (ATCC-CRL5807) cells; test: Cell viability assay, G12C (NCI-H358); type: cell-based, human; conditions: Homo sapiens; KRAS cell viability, NCI-H358, 72 hrs, Cell Counting Kit-8
Protocol: as §2, §3

[4] = test system: phosphorylation of ERK, KRAS G12V in SW620; test: pERK inhibition assay, KRAS G12V; type: cell-based, human; conditions: Homo sapiens, SW-620, SW620, 4 hours
Protocol: (§4) This assay is to measure the ability of test compounds in inhibiting the phosphorylation of ERK, the downstream signaling of KRAS G12C in NCJ-H358 cells, KRAS G12D in AGS cells, and KRAS G12V in SW620. NCJ-H358 (ATCC-CRL5807) cells, AGS (ATCC-CRL-1739) cells, SW620 (ATCC-CCL-227) cells were all grown and maintained using RPMI-1640 medium (Thermo Fisher Scientific) with 10% fetal bovine serum and 1% penicillin/streptomycin. On the day prior to compound addition, cells were plated in tissue culture-treated 96 well plates (Corning-3699) at a density of 30,000 cell/well, 20,000 cell/well, 30,000 cell/well for NCJ-H358, AGS and SW620 respectively, and allowed for attachment overnight. Diluted compounds were then added in a final concentration of 0.5% DMSO. After 4 hours of incubation, the medium was removed, 100 μL of 4% formaldehyde was added, and the assay plates were incubated at room temperature for 20 minutes. The plates were then washed once with phosphate buffered saline (PBS), and permeabilized with 100 μL of chilled methanol for 10 minutes. Non-specific antibody binding to the plates was blocked using 50 μL 1×BSA blocking buffer (Thermo-37520, 10-fold dilution by Phosphate-Buffered Saline Tween (PBST) for at least 1 hour at room temperature.
(§5) The amount of phosphor-ERK was determined using an antibody specific for phosphorylated form of ERK. Primary antibody (pERK, CST-4370, Cell Signaling Technology) was diluted 1:300 in blocking buffer, with 50 μL aliquoted to each well, and incubated overnight at 4′° C. Cells was washed five times for 5 minutes with PBST. Secondary antibody ([…] anti-rabbit IgG, CST-7074, Cell Signaling Technology) was diluted 1:1000 in blocking buffer, and 50 μL was added to each well and incubated 1-2 hrs at room temperature. Cells was washed 5 times for 5 minutes with PBST, 100 μL TMB ELISA substrate (abcam-ab171523) were added and gently shake for 20 minutes. 50 μL stop solution (abcam-ab171529) were added, and then read the signal (OD450) by EnVision.
(§6) IC50 was determined by fitting a 4-parameter sigmoidal concentration response model.

[5] = target: KRAS G12D binding to BRAF (Homo sapiens (Human), UniProt P01116+P62937, G12D); test: KRAS-BRAF with CYPA (500 nM) interaction assay (TR-FRET), G12D; type: biochemical
Protocol: as §1

[6] = test system: SW620 (ATCC-CCL-227); test: Cell viability assay, G12V (SW620); type: cell-based, human; conditions: Homo sapiens, SW-620; KRAS cell viability, SW620, 72 hrs, Cell Counting Kit-8
Protocol: as §2, §3

[7] = target: KRAS G12V binding to BRAF (Homo sapiens (Human), UniProt P01116+P62937, G12V); test: KRAS-BRAF with CYPA (500 nM) interaction assay (TR-FRET), G12V; type: biochemical
Protocol: In this example, TR-FRET was also used to measure the compound or compound-CYPA dependent disruption of the KRAS G12C-BRAF complex. This protocol was also used to measure disruption of KRAS G12D or KRAS G12V binding to BRAF by a compound of the invention, respectively. In assay buffer containing 25 mM HEPES PH=7.4 (4-(2-hydroxyethyl)-1-piperazineethanesulfonic acid, Thermo, 15630080), 0.002% Tween20, 0.1% BSA, 100 mM NaCl, 5 mM MgCl2, 10 μM GMPPNP (Guanosine 5′-[β,γ-imido]triphosphate trisodium salt hydrate, Sigma, G0635), […], GMPPNP loaded 6His-KRAS proteins, and […], 6.25 nM and 1 nM, respectively. Compound was present in plate wells as a 16-point 3-fold dilution series starting at a final concentration of 10 μM and incubated for 3 hours. A mixture of MAb Anti-6His-XL665 (Cisbio, 61HISXLB) and Mab anti-GST-TB cryptate (Cisbio, 61GSTTLB) was then added at a final concentration of 6.67 nM and 0.21 nM, respectively, and the plate was incubated for an additional 1.5 hours. TR-FRET signal was read on a PHERstar FSX microplate reader (Ex320 nm, Em 665/615 nm). Compounds that facilitate disruption of the KRAS-BRAF complex were identified as those eliciting a decrease in the TR-FRET ratio relative to DMSO control wells.

[8] = test system: phosphorylation of ERK, KRAS G12C in NCJ-H358 cells; test: pERK inhibition assay, KRAS G12C; type: cell-based, human; conditions: Homo sapiens, 4 hours
Protocol: as §4, §5, §6

Sequence of KRAS G12C-BRAF complex (P01116-2 other isoform, or with tags, fused parts or gaps G12C): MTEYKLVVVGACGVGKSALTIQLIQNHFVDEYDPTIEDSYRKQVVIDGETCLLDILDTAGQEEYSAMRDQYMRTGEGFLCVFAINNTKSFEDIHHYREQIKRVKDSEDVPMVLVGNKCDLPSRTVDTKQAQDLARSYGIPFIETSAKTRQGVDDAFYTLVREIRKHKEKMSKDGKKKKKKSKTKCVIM
Sequence of KRAS G12C-BRAF complex (P62937 whole entry): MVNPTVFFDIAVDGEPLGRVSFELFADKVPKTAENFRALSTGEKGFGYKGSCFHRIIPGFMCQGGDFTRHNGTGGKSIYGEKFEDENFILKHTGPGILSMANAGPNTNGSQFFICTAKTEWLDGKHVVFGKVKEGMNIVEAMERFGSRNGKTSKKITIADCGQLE
Sequence of KRAS G12V binding to BRAF (P01116-2 other isoform, or with tags, fused parts or gaps G12V): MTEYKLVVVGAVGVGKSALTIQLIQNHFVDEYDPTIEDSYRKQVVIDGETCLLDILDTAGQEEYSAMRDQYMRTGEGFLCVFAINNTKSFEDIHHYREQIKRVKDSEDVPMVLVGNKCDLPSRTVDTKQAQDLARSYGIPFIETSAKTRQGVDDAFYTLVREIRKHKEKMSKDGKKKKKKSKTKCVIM
Sequence of KRAS G12V binding to BRAF (P62937 whole entry): as the sequence (P62937 whole entry) above
Sequence of KRAS G12D binding to BRAF (P01116-2 other isoform, or with tags, fused parts or gaps G12D): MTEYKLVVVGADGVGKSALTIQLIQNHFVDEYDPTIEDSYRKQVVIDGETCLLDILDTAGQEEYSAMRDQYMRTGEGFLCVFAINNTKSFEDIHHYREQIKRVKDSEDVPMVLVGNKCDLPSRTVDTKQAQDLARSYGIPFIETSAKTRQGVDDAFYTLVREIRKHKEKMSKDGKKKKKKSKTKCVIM
Sequence of KRAS G12D binding to BRAF (P62937 whole entry): as the sequence (P62937 whole entry) above

Row | Compound | IC50 [1] [nM] | IC50 [2] [nM] | IC50 [3] [nM] | IC50 [4] [nM] | IC50 [5] [nM] | IC50 [6] [nM] | IC50 [7] [nM] | IC50 [8] [nM]
1 | CO[C@@H](C)c1ncc(N2CCN(CC(F)(F)F)CC2)cc1-c1c2c3cc(c(F)cc3n1CC(F)(F)F)-c1csc(n1)C[C@H](NC(=O)[C@H](C(C)C)N(C)C(=O)C1(F)CCN(C(=O)[C@H](F)Cl)CC1)C(=O)N1CCC[C@H](N1)C(=O)OCC(C)(C)C2 (atropisomer, axis not shown; (M)) [Example 44, 1-[(2R)-2-chloro-2-fluoro-acetyl]-4-fluoro-N-[(1S)-1-[[(7S,13S)-24-fluoro-(20M)-20-[2-[(1S)-1-methoxyethyl]-5-[4-(2,2,2-trifluoroethyl)piperazin-1-yl]-3-pyridyl]-17,17-dimethyl-8,14-dioxo-21-(2,2,2-trifluoroethyl)-15-oxa-4-thia-9,21,27,28-tetrazapentacyclo[17.5.2.1^2,5.1^9,13.0^22,26]octacosa-1(25),2,5(28),19,22(26),23-hexaen-7-yl]carbamoyl]-2-methyl-propyl]-N-methyl-piperidine-4-carboxamide] | 34 | 134 | < 1 | 44 | 1340 | > 5000 | 607 | 10
2 | CCn1c(-c2cc(N3CCN(C)CC3)cnc2[C@H](C)OC)c2c3cc(c(F)cc31)-c1csc(n1)C[C@H](NC(=O)[C@H](C(C)C)N(C)C(=O)C1(F)CCN(C(=O)[C@H](F)Cl)CC1)C(=O)N1CCC[C@H](N1)C(=O)OCC(C)(C)C2 (atropisomer, axis not shown; (M)) [Example 34, 1-[(2R)-2-chloro-2-fluoro-acetyl]-N-[(1S)-1-[[(7S,13S)-21-ethyl-24-fluoro-(20M)-20-[2-[(1S)-1-methoxyethyl]-5-(4-methylpiperazin-1-yl)-3-pyridyl]-17,17-dimethyl-8,14-dioxo-15-oxa-4-thia-9,21,27,28-tetrazapentacyclo[17.5.2.1^2,5.1^9,13.0^22,26]octacosa-1(25),2,5(28),19,22(26),23-hexaen-7-yl]carbamoyl]-2-methyl-propyl]-4-fluoro-N-methyl-piperidine-4-carboxamide] | 47 | 43 | < 1 | 12 | 909 | 40 | 724 | 2
3 | CCn1c(-c2cc(N3CCN(CC(F)(F)F)CC3)cnc2[C@H](C)OC)c2c3cc(c(F)cc31)-c1csc(n1)C[C@H](NC(=O)[C@H](C(C)C)N1CCC3(CCN(C(=O)[C@H](F)Cl)CC3)C1=O)C(=O)N1CCC[C@H](N1)C(=O)OCC(C)(C)C2 (atropisomer, axis not shown; (M)) [Example 39, (2S)-2-[8-[(2R)-2-chloro-2-fluoro-acetyl]-1-oxo-2,8-diazaspiro[4.5]decan-2-yl]-N-[(7S,13S)-21-ethyl-24-fluoro-(20M)-20-[2-[(1S)-1-methoxyethyl]-5-[4-(2,2,2-trifluoroethyl)piperazin-1-yl]-3-pyridyl]-17,17-dimethyl-8,14-dioxo-15-oxa-4-thia-9,21,27,28-tetrazapentacyclo[17.5.2.1^2,5.1^9,13.0^22,26]octacosa-1(25),2,5(28),19,22(26),23-hexaen-7-yl]-3-methyl-butanamide] | 104 | 112 | < 1 | 44 | > 10000 | 184 | > 10000 | 6
4 | CO[C@@H](C)c1ncc(N2CCN(CC(F)(F)F)CC2)cc1-c1c2c3cc(c(F)cc3n1CC(F)(F)F)-c1csc(n1)C[C@H](NC(=O)[C@H](C(C)C)N1CCCC3(CCN(C(=O)[C@H](F)Cl)CC3)C1=O)C(=O)N1CCC[C@H](N1)C(=O)OCC(C)(C)C2 (atropisomer, axis not shown; (M)) [Example 42, (2S)-2-[9-[(2R)-2-chloro-2-fluoro-acetyl]-1-oxo-2,9-diazaspiro[5.5]undecan-2-yl]-N-[(7S,13S)-24-fluoro-(20M)-20-[2-[(1S)-1-methoxyethyl]-5-[4-(2,2,2-trifluoroethyl)piperazin-1-yl]-3-pyridyl]-17,17-dimethyl-8,14-dioxo-21-(2,2,2-trifluoroethyl)-15-oxa-4-thia-9,21,27,28-tetrazapentacyclo[17.5.2.1^2,5.1^9,13.0^22,26]octacosa-1(25),2,5(28),19,22(26),23-hexaen-7-yl]-3-methyl-butanamide] | 73 | 44 | < 1 | 24 | 3970 | 82 | 7860 | 3
